US20210270813A1, “KIT, METHOD FOR SCREENING AN ACTIVE COMPOUND IN VITRO AND USES OF A KIT” (L'OREAL, priority 2018, published 2021)

System: neurites emerging from the neurospheres
Assay: Maximum extension of neurites emerging from neurospheres in modified co-culture microdevice
Type: cell-based, human
Details: NGF added or not to the matrigel in the middle punched hole; 3N medium or 75% CM plus HEKn; FIG. 14C
Method: Keratinocytes moved faster than the dendrites and since removing the microdevice sometimes meant that neurospheres were pulled from the substrate, a hole between the wells of the same pair was punched and the keratinocytes were placed within this hole (FIG. 13A, red arrow). The region where there was a predominance of migrating neurites was observed and the highest migration radius was measured (FIG. 13B, blue arrow).
To further test this modified co-culture microdevice, the culture media (3N versus 75% CM from HEKn) and the presence (or not) of matrigel in the middle hole were compared by measuring the maximum extension of the neurites emerging from the neurospheres (FIG. 14A). There were no statistically significant differences. Then, the extension of neurites in the presence or absence of keratinocytes in the hole were compared. Again, no differences were observed (FIG. 14B). Finally, another variable was tested: adding NGF or not to the matrigel in the middle punched hole.

Substance: nerve growth factor [NGF]
- maximum extension of the neurites (neurite migration): trend of NGF to increase migration
